In patent US20240218022A1, “ANTI-VISTA MACROCYCLIC PEPTIDES AND COMPOSITIONS” (BRISTOL-MYERS SQUIBB COMPANY, priority 2022, published 2024):
Starred links: 1 amine or outer side, 2 acyl side, 3 side chain; linkers in the order of their positions; H or OH if unused. Positions of bridges follow the written chain, without caps; N, C: chain ends. Non-standard residues stand in square brackets, D forms with d. Residues, ends and D or L forms follow the SMILES beside them. ξ: configuration not given here. Phe(4-COOH) = N[C@@H](Cc1ccc(C(=O)O)cc1)C(=O)O; βAsp = O=C(O)[C@H](CC(=O)[*:2])N[*:1]; NMeThr(3ξ) = CN[C@H](C(=O)O)C(C)O; Aad = N[C@@H](CCCC(=O)O)C(=O)O; Cha = N[C@@H](CC1CCCCC1)C(=O)O; NMeL = CN[C@@H](CC(C)C)C(=O)O; Ahp(2) = CCCCC[C@H](N)C(=O)O; NMeNle = CCCC[C@H](NC)C(=O)O; Tle = CC(C)(C)[C@H](N)C(=O)O; NMeV = CN[C@H](C(=O)O)C(C)C; NMeS = CN[C@@H](CO)C(=O)O; NHexGly = CCCCCCNCC(=O)O; Orn = NCCC[C@H](N)C(=O)O; Aun = NCCCCCCCCCCC(=O)O; AEEA = NCCOCCOCC(=O)O

Target: T1, mouse VISTA (mVISTA) (Mus musculus, UniProt Q9D659)
T1 construct: expressed in transfected cells; host or cells: Human embryonic kidney 293T cells
T1 sequence (Q9D659 33-308): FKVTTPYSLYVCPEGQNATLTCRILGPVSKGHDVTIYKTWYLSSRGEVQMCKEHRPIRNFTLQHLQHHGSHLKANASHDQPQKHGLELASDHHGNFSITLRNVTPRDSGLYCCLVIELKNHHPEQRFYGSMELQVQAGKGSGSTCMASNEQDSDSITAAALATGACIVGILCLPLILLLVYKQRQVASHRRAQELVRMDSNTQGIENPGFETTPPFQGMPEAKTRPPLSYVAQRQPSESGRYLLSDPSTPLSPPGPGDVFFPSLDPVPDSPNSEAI
Assay: Cell-Based Binding High-Content Assay For mVISTA (HC CBA mVISTA)
Conditions: cell-based binding high-content assay, mVISTA; read-out: HC CBA miPr ISTA IC50
In short: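 Read-out: Alexa 647–streptavidin signal imaged on fixed, Hoechst-stained mVISTA-293T cells, with IC50 taken from a four-parameter logistic curve. Compounds competed with 2 nM biotinylated peptide for 30 min at room temperature, tested under both no-wash and wash (1 h compound, media exchange, 1 h) formats.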

| IC50 | SMILES |
| --- | --- |
| 34.5 nM | CCCCCCN1CC(=O)N[C@@H](Cc2ccc(O)cc2)C(=O)N[C@@H](CCCCN)C(=O)N[C@@H](CC(N)=O)C(=O)N[C@@H](CCCNC(=N)N)C(=O)N(C)[C@@H](CCCC)C(=O)N[C@@H](CCCCC)C(=O)N2CCC[C@H]2C(=O)N[C@@H](C(C)(C)C)C(=O)N[C@@H](CO)C(=O)N[C@H](C(=O)N[C@@H](CC(=O)NCCOCCOCC(=O)N[C@@H](CC(=O)O)C(=O)NCCOCCOCC(=O)NCCCCCCCCCCC(=O)O)C(=O)O)CSCC(=O)N[C@@H](Cc2ccccc2)C(=O)N[C@@H](Cc2ccc(O)cc2)C(=O)N[C@@H](CC(=O)O)C1=O [compound 2046] ({CH2CO}-FYD[NHexGly]YKNR[NMeNle][Ahp(2)]P[Tle]SC[βAsp][AEEA]D[AEEA][Aun]-OH; thioether N-14) |
| 48.8 nM | CCCCCCN1CC(=O)N[C@@H](Cc2ccc(O)cc2)C(=O)N[C@@H](CC(C)C)C(=O)N[C@@H](CC(N)=O)C(=O)N[C@@H](CCCN)C(=O)N(C)[C@@H](CCCC)C(=O)N[C@@H](CCCCC)C(=O)N2CCC[C@H]2C(=O)N[C@@H](C(C)(C)C)C(=O)N[C@@H](CO)C(=O)N[C@H](C(=O)N[C@@H](CC(=O)NCCOCCOCC(=O)N[C@@H](CC(=O)O)C(=O)NCCOCCOCC(=O)NCCCCCCCCCCC(=O)O)C(=O)O)CSCC(=O)N[C@@H](Cc2ccc(C(=O)O)cc2)C(=O)N[C@@H](Cc2ccc(O)cc2)C(=O)N[C@@H](CC(=O)O)C1=O [compound 2047] ({CH2CO}-[Phe(4-COOH)]YD[NHexGly]YLN[Orn][NMeNle][Ahp(2)]P[Tle]SC[βAsp][AEEA]D[AEEA][Aun]-OH; thioether N-14) |
| 35 nM | CCCCCCN1CC(=O)N[C@@H](Cc2ccc(O)cc2)C(=O)N[C@@H](CC(C)C)C(=O)N[C@@H](CC(N)=O)C(=O)N[C@@H](CCCNC(=N)N)C(=O)N(C)[C@@H](CO)C(=O)N[C@@H](CCCCC)C(=O)N2CCC[C@H]2C(=O)N[C@@H](C(C)(C)C)C(=O)N[C@@H](CC(=O)O)C(=O)N[C@H](C(=O)N[C@@H](CC(=O)NCCOCCOCC(=O)N[C@@H](CC(=O)O)C(=O)NCCOCCOCC(=O)NCCCCCCCCCCC(=O)O)C(=O)O)CSCC(=O)N[C@@H](Cc2ccc(C(=O)O)cc2)C(=O)N[C@@H](Cc2ccc(O)cc2)C(=O)N[C@@H](CC(=O)O)C1=O [compound 2048] ({CH2CO}-[Phe(4-COOH)]YD[NHexGly]YLNR[NMeS][Ahp(2)]P[Tle]DC[βAsp][AEEA]D[AEEA][Aun]-OH; thioether N-14) |
| 24.1 nM | CCCCCCN1CC(=O)N[C@@H](Cc2ccc(O)cc2)C(=O)N[C@@H](CC(C)C)C(=O)N[C@@H](CC(N)=O)C(=O)N[C@@H](CCCNC(=N)N)C(=O)N(C)[C@@H](CCCC)C(=O)N[C@@H](CCCCC)C(=O)N2CCC[C@H]2C(=O)N[C@@H](C(C)(C)C)C(=O)N[C@@H](CO)C(=O)N[C@H](C(=O)N[C@@H](CC(=O)NCCOCCOCC(=O)N[C@@H](CC(=O)O)C(=O)NCCOCCOCC(=O)NCCCCCCCCCCC(=O)O)C(=O)O)CSCC(=O)N[C@@H](Cc2ccc(C(=O)O)cc2)C(=O)N[C@@H](Cc2ccc(O)cc2)C(=O)N[C@@H](CC(=O)O)C1=O [compound 2050] ({CH2CO}-[Phe(4-COOH)]YD[NHexGly]YLNR[NMeNle][Ahp(2)]P[Tle]SC[βAsp][AEEA]D[AEEA][Aun]-OH; thioether N-14) |
| 31.7 nM | CCCCCCN1CC(=O)N[C@@H](Cc2ccc(O)cc2)C(=O)N[C@@H](CC(C)C)C(=O)N[C@@H](CC(N)=O)C(=O)N[C@@H](CCCNC(=N)N)C(=O)N(C)[C@@H](CC(C)C)C(=O)N[C@@H](CCCCC)C(=O)N2CCC[C@H]2C(=O)N[C@@H](C(C)(C)C)C(=O)N[C@@H](CO)C(=O)N[C@H](C(=O)N[C@@H](CC(=O)NCCOCCOCC(=O)N[C@@H](CC(=O)O)C(=O)NCCOCCOCC(=O)NCCCCCCCCCCC(=O)O)C(=O)O)CSCC(=O)N[C@@H](Cc2ccc(C(=O)O)cc2)C(=O)N[C@@H](Cc2ccc(O)cc2)C(=O)N[C@@H](CC(=O)O)C1=O [compound 2052] ({CH2CO}-[Phe(4-COOH)]YD[NHexGly]YLNR[NMeL][Ahp(2)]P[Tle]SC[βAsp][AEEA]D[AEEA][Aun]-OH; thioether N-14) |
| 39.4 nM | CCCCCCN1CC(=O)N[C@@H](Cc2ccc(O)cc2)C(=O)N[C@@H](CC2CCCCC2)C(=O)N[C@@H](CC(N)=O)C(=O)N[C@@H](CCCNC(=N)N)C(=O)N(C)[C@@H](CCCC)C(=O)N[C@@H](CCCCC)C(=O)N2CCC[C@H]2C(=O)N[C@@H](C(C)(C)C)C(=O)N[C@@H](CO)C(=O)N[C@H](C(=O)N[C@@H](CC(=O)NCCOCCOCC(=O)N[C@@H](CC(=O)O)C(=O)NCCOCCOCC(=O)NCCCCCCCCCCC(=O)O)C(=O)O)CSCC(=O)N[C@@H](Cc2ccccc2)C(=O)N[C@@H](Cc2ccc(O)cc2)C(=O)N[C@@H](CC(=O)O)C1=O [compound 2053] ({CH2CO}-FYD[NHexGly]Y[Cha]NR[NMeNle][Ahp(2)]P[Tle]SC[βAsp][AEEA]D[AEEA][Aun]-OH; thioether N-14) |
| 23.2 nM | CCCCCCN1CC(=O)N[C@@H](Cc2ccc(O)cc2)C(=O)N[C@@H](CCCC(=O)O)C(=O)N[C@@H](CC(N)=O)C(=O)N[C@@H](CCCNC(=N)N)C(=O)N(C)[C@@H](CCCC)C(=O)N[C@@H](CCCCC)C(=O)N2CCC[C@H]2C(=O)N[C@@H](C(C)(C)C)C(=O)N[C@@H](CO)C(=O)N[C@H](C(=O)N[C@@H](CC(=O)NCCOCCOCC(=O)N[C@@H](CC(=O)O)C(=O)NCCOCCOCC(=O)NCCCCCCCCCCC(=O)O)C(=O)O)CSCC(=O)N[C@@H](Cc2ccccc2)C(=O)N[C@@H](Cc2ccc(O)cc2)C(=O)N[C@@H](CC(=O)O)C1=O [compound 2054] ({CH2CO}-FYD[NHexGly]Y[Aad]NR[NMeNle][Ahp(2)]P[Tle]SC[βAsp][AEEA]D[AEEA][Aun]-OH; thioether N-14) |

The next lines start with the compound.

| SMILES | IC50 |
| --- | --- |
| CCCCCCN1CC(=O)N[C@@H](Cc2ccc(O)cc2)C(=O)N[C@@H](CC(C)C)C(=O)N[C@@H](CC(N)=O)C(=O)N[C@@H](CCCNC(=N)N)C(=O)N(C)[C@@H](C(C)C)C(=O)N[C@@H](CCCCC)C(=O)N2CCC[C@H]2C(=O)N[C@@H](C(C)(C)C)C(=O)N[C@@H](CC(=O)O)C(=O)N[C@H](C(=O)N[C@@H](CC(=O)NCCOCCOCC(=O)N[C@@H](CC(=O)O)C(=O)NCCOCCOCC(=O)NCCCCCCCCCCC(=O)O)C(=O)O)CSCC(=O)N[C@@H](Cc2ccccc2)C(=O)N[C@@H](Cc2c[nH]c3ccccc23)C(=O)N[C@@H](CC(=O)O)C1=O [compound 2040] ({CH2CO}-FWD[NHexGly]YLNR[NMeV][Ahp(2)]P[Tle]DC[βAsp][AEEA]D[AEEA][Aun]-OH; thioether N-14) | 40.7 nM |
| CCCCCCN1CC(=O)N[C@@H](Cc2ccc(O)cc2)C(=O)N[C@@H](CC(C)C)C(=O)N[C@@H](CC(N)=O)C(=O)N[C@@H](CCCNC(=N)N)C(=O)N(C)[C@@H](C(C)C)C(=O)N[C@@H](CCCCC)C(=O)N2CCC[C@H]2C(=O)N[C@@H](C(C)(C)C)C(=O)N[C@@H](CO)C(=O)N[C@H](C(=O)N[C@@H](CC(=O)NCCOCCOCC(=O)N[C@@H](CC(=O)O)C(=O)NCCOCCOCC(=O)NCCCCCCCCCCC(=O)O)C(=O)O)CSCC(=O)N[C@@H](Cc2ccccc2)C(=O)N[C@@H](Cc2ccc(O)cc2)C(=O)N[C@@H](CC(=O)O)C1=O [compound 2041] ({CH2CO}-FYD[NHexGly]YLNR[NMeV][Ahp(2)]P[Tle]SC[βAsp][AEEA]D[AEEA][Aun]-OH; thioether N-14) | 29.7 nM |
| CCCCCCN1CC(=O)N[C@@H](Cc2ccc(O)cc2)C(=O)N[C@@H](CC(C)C)C(=O)N[C@@H](CC(N)=O)C(=O)N[C@@H](CCCNC(=N)N)C(=O)N(C)[C@@H](C(C)O)C(=O)N[C@@H](CCCCC)C(=O)N2CCC[C@H]2C(=O)N[C@@H](C(C)(C)C)C(=O)N[C@@H](CC(=O)O)C(=O)N[C@H](C(=O)N[C@@H](CC(=O)NCCOCCOCC(=O)N[C@@H](CC(=O)O)C(=O)NCCOCCOCC(=O)NCCCCCCCCCCC(=O)O)C(=O)O)CSCC(=O)N[C@@H](Cc2ccccc2)C(=O)N[C@@H](Cc2c[nH]c3ccccc23)C(=O)N[C@@H](CC(=O)O)C1=O (stereo partly drawn) [compound 2042] ({CH2CO}-FWD[NHexGly]YLNR[NMeThr(3ξ)][Ahp(2)]P[Tle]DC[βAsp][AEEA]D[AEEA][Aun]-OH; thioether N-14) | 30.8 nM |
| CCCCCCN1CC(=O)N[C@@H](Cc2ccc(O)cc2)C(=O)N[C@@H](CC(C)C)C(=O)N[C@@H](CC(N)=O)C(=O)N[C@@H](CCCN)C(=O)N(C)[C@@H](CO)C(=O)N[C@@H](CCCCC)C(=O)N2CCC[C@H]2C(=O)N[C@@H](C(C)(C)C)C(=O)N[C@@H](CC(=O)O)C(=O)N[C@H](C(=O)N[C@@H](CC(=O)NCCOCCOCC(=O)N[C@@H](CC(=O)O)C(=O)NCCOCCOCC(=O)NCCCCCCCCCCC(=O)O)C(=O)O)CSCC(=O)N[C@@H](Cc2ccccc2)C(=O)N[C@@H](Cc2ccc(O)cc2)C(=O)N[C@@H](CC(=O)O)C1=O [compound 2044] ({CH2CO}-FYD[NHexGly]YLN[Orn][NMeS][Ahp(2)]P[Tle]DC[βAsp][AEEA]D[AEEA][Aun]-OH; thioether N-14) | 41.2 nM |
| CCCCCCN1CC(=O)N[C@@H](Cc2ccc(O)cc2)C(=O)N[C@@H](CC(C)C)C(=O)N[C@@H](CC(N)=O)C(=O)N[C@@H](CCCN)C(=O)N(C)[C@@H](CCCC)C(=O)N[C@@H](CCCCC)C(=O)N2CCC[C@H]2C(=O)N[C@@H](C(C)(C)C)C(=O)N[C@@H](CO)C(=O)N[C@H](C(=O)N[C@@H](CC(=O)NCCOCCOCC(=O)N[C@@H](CC(=O)O)C(=O)NCCOCCOCC(=O)NCCCCCCCCCCC(=O)O)C(=O)O)CSCC(=O)N[C@@H](Cc2ccccc2)C(=O)N[C@@H](Cc2ccc(O)cc2)C(=O)N[C@@H](CC(=O)O)C1=O [compound 2045] ({CH2CO}-FYD[NHexGly]YLN[Orn][NMeNle][Ahp(2)]P[Tle]SC[βAsp][AEEA]D[AEEA][Aun]-OH; thioether N-14) | 20.1 nM |
